Experimental data published in patent publication US20240368158A1, “KINASE MODULATORS, COMPOSITIONS COMPRISING THE KINASE MODULATOR, AND METHODS OF USING THE SAME” (BIOFRONT LTD, priority 2021, published 2024).

How the values were obtained:
[1] = system: HPK1 p-SLP-76 in Jurkat cells; test: HPK1 p-SLP-76 inhibition assay in Jurkat cells (HTRF); format: cell-based; conditions: Homo sapiens, 4 h compound, anti-CD3 stimulation 20 min
Method: Before compound treatment, Jurkat cells were starved in PRMI-1640 medium supplemented with 0.5% FBS overnight. The cell density was adjusted to 1*10^7 cells/mL in assay medium (RPMI-1640 no phenol red with 0.5% FBS) and 16 uL cell suspension was transferred per well to a 384-well plate (Corning #3765). […] of test compound was prepared in assay medium and 4 uL was added per well to the 384-well plate. The plate was then incubated at 37° C., 5% CO2 for 4 h. Jurkat cells in 384-well plate were stimulated with anti-CD3 (BD Biosciences #555329, final conc. is 10 ug/mL) for 20 min at 37° C., 5% CO2 by adding 4 uL 6× antibody solution per well. Phospho-SLP76 HTRF kit was purchased from Cisbio (63ADK076PEH). 8 uL 4× Lysis Buffer was added to 384-well plate after anti-CD3 stimulation. The plate was centrifuged at 1,000 rpm for 1 min, shaken at 250 rpm for 60 min and centrifuged again at 1,000 rpm for 5 min. Afterwards the cell lysates were transferred to the assay plate (Greiner #784075) with 16 uL per well. 4 uL detection antibody mix per well prepared in Detection Buffer was added to the assay plate, followed by centrifugation at 1,000 rpm for 1 min and incubation at 25° C. overnight. The fluorescence emission at two different wavelengths (665 nm and 620 nm) was read by an HTRF compatible microplate reader and the IC50 value of the compound was calculated.

HPK1 = biological target: T1, HPK1 (Homo sapiens, UniProt Q92918); test: HPK1 enzyme inhibition assay (ADP-Glo); format: biochemical; conditions: MBP substrate, ATP
T1 construct: purchased Signal Chem M23-11G-10
T1 sequence (Q92918 1-346 limits assumed): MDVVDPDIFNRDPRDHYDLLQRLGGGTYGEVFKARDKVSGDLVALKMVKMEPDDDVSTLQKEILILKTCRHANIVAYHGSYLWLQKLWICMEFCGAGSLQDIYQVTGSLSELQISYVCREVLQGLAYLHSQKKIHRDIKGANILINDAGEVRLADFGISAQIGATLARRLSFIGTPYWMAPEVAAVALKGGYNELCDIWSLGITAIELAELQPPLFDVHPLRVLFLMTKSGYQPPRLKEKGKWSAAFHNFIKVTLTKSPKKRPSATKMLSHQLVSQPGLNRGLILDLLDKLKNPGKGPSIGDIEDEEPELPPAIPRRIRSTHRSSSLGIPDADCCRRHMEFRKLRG
Method: The compound was dissolved in 100% DMSO at the concentration of 10 mM. The HPK1 protein was purchased from Signal Chem (M23-11G-10). 2.5 μL per well of 2×HPK1 protein was added to assay plate containing the test compound, centrifuged at 1500 rpm for 1 minute, and then incubated at 25° C. for 60 minutes. MBP protein was purchased from Signal Chem (M42-51N) and ATP was purchased from Promega (V9102). The two were added 2.5 μL per well mixture of 2×MBP (0.2 ug/ul) and ATP (20 μM), centrifuged at 1500 rpm for 1 minute, then incubated at 25° C. for 60 minutes. Then added 5 μL of ADP-Glo from Promega (V9102) to the assay plate and depleted the unconsumed ATP for 60 minutes. Then centrifuged at 1500 rpm for 1 minute and incubated at 25° C. for 60 minutes. Finally, 10 μL of the kinase assay reagent from Promega (V9102) was added to the assay plate to convert ADP to ATP, centrifuged at 1500 rpm for 1 minute, incubate at 25° C. for 40 minutes. After 40 minutes incubation, the […] was determined. Based on the results, the IC50 value of the compound was calculated.

Compound | IC50 [1] [nM] | IC50 (HPK1) [nM]
CCc1c[nH]c2ncc(-c3cccc(N4CCN(S(C)(=O)=O)CC4=O)c3)c(Cl)c12 [Example 52, 1-(3-(4-chloro-3-ethyl-1H-pyrrolo[2,3-b]pyridin-5-yl)phenyl)-4-(methylsulfonyl) piperazin-2-one] | 300 to 3000 | ≤ 10
O=C1CN(S(=O)(=O)CCCN2CCOCC2)CCN1c1cccc(-c2cnc3[nH]cc(C4CC4)c3c2Cl)c1 [Example 55, 1-(3-(4-chloro-3-cyclopropyl-1H-pyrrolo[2,3-b]pyridin-5-yl)phenyl)-4-((3-morpholinopropyl)sulfonyl)piperazin-2-one] | 300 to 3000 | ≤ 10
CCc1c[nH]c2ncc(-c3cccc(N4CCN(C(=O)CNc5ccc(C[C@@H](N)C(=O)O)cc5)CC4=O)c3)c(Cl)c12 [Example 46, (R)-2-amino-3-(4-((2-(4-(3-(4-chloro-3-ethyl-1H-pyrrolo[2,3-b]pyridin-5-yl)phenyl)-3-oxopiperazin-1-yl)-2-oxoethyl)amino)phenyl)propanoic acid] | 3000 to 10000 | ≤ 10
CCc1c[nH]c2ncc(-c3cccc(N4CCN(C(=O)CCCNC(=O)CC56CC7CC(CC(C7)C5)C6)CC4=O)c3)c(Cl)c12 [Example 34, 2-((3r,5r,7r)-adamantan-1-yl)-N-(4-(4-(3-(4-chloro-3-ethyl-1H-pyrrolo[2,3-b]pyridin-5-yl)phenyl)-3-oxopiperazin-1-yl)-4-oxobutyl)acetamide] | 3000 to 10000 | 10 to 100
CCc1c[nH]c2ncc(-c3cccc(N4CCN(C(=O)[C@@H](N)C(C)C)CC4=O)c3)c(Cl)c12 [Example 42, 4-(L-valyl)-1-(3-(4-chloro-3-ethyl-1H-pyrrolo[2,3-b]pyridin-5-yl)phenyl)piperazin-2-one] | 3000 to 10000 | 10 to 100
O=C1CNCCN1c1cccc(-c2cnc3[nH]cc(CC(F)F)c3c2Cl)c1 [Example 12, 1-(3-(4-chloro-3-(2,2-difluoroethyl)-1H-pyrrolo[2,3-b]pyridin-5-yl)phenyl)piperazin-2-one] | 300 to 3000 | ≤ 10
COCC(=O)N1CCN(c2cccc(-c3cnc4[nH]cc(C#Cc5ncn(C)n5)c4c3Cl)c2)C(=O)C1 [Example 36, 1-(3-(4-chloro-3-((1-methyl-1H-1,2,4-triazol-3-yl)ethynyl)-1H-pyrrolo[2,3-b]pyridin-5-yl)phenyl)-4-(2-methoxyacetyl)piperazin-2-one] | > 10000 | 10 to 100
CCc1c[nH]c2ncc(-c3csc(N4CCNCC4=O)n3)c(Cl)c12 [Example 10, 1-(4-(4-chloro-3-ethyl-1H-pyrrolo[2,3-b]pyridin-5-yl)thiazol-2-yl)piperazin-2-one] | 300 to 3000 | 10 to 100
CN(C)CC(=O)N1CCN(c2cccc(-c3cnc4[nH]cc(C#Cc5cccnc5)c4c3Cl)c2)C(=O)C1 [Example 30, 1-(3-(4-chloro-3-(pyridin-3-ylethynyl)-1H-pyrrolo[2,3-b]pyridin-5-yl)phenyl)-4-(dimethylglycyl)piperazin-2-one] | 300 to 3000 | 10 to 100
CCc1c[nH]c2ncc(-c3cc(N4CCNCC4=O)ccc3CNC)cc12 [Example 41, 1-(3-(3-ethyl-1H-pyrrolo[2,3-b]pyridin-5-yl)-4-((methylamino)methyl)phenyl)piperazin-2-one] | > 10000 | > 1000
CC1CN(CCCS(=O)(=O)N2CCN(c3cccc(-c4cnc5[nH]cc(C6CC6)c5c4Cl)c3)C(=O)C2)C1 [Example 57, 1-(3-(4-chloro-3-cyclopropyl-1H-pyrrolo[2,3-b]pyridin-5-yl)phenyl)-4-((3-(3-methylazetidin-1-yl)propyl)sulfonyl)piperazin-2-one] | 300 to 3000 | ≤ 10
COCC(=O)N1CCN(c2cccc(-c3cnc4[nH]cc(CC(F)F)c4c3Cl)c2)C(=O)C1 [Example 38, 1-(3-(4-chloro-3-(2,2-difluoroethyl)-1H-pyrrolo[2,3-b]pyridin-5-yl)phenyl)-4-(2-methoxyacetyl)piperazin-2-one] | 300 to 3000 | ≤ 10
O=C1CN(S(=O)(=O)CCCN2CCOCC2)CCN1c1cccc(-c2cnc3[nH]cc(CC(F)F)c3c2Cl)c1 [Example 59, 1-(3-(4-chloro-3-(2,2-difluoroethyl)-1H-pyrrolo[2,3-b]pyridin-5-yl)phenyl)-4-((3-morpholinopropyl)sulfonyl)piperazin-2-one] | 300 to 3000 | ≤ 10
CCc1c[nH]c2ncc(-c3cccc(N4CCN(C(=O)CC[C@H](NC(=O)c5ccc(NCc6cnc7nc(N)[nH]c(=O)c7n6)cc5)C(=O)O)CC4=O)c3)c(Cl)c12 [Example 47, (S)-2-(4-(((2-amino-4-oxo-3,4-dihydropteridin-6-yl)methyl)amino)benzamido)-5-(4-(3-(4-chloro-3-ethyl-1H-pyrrolo[2,3-b]pyridin-5-yl)phenyl)-3-oxopiperazin-1-yl)-5-oxopentanoic acid] | > 10000 | 10 to 100
CCc1c[nH]c2ncc(-c3cccc(N4CCC[C@H](CO)C4=O)c3)c(Cl)c12 [Example 23, (R)-1-(3-(4-chloro-3-ethyl-1H-pyrrolo[2,3-b]pyridin-5-yl)phenyl)-3-(hydroxymethyl)piperidin-2-one] | 300 to 3000 | ≤ 10
O=C1CN(S(=O)(=O)CCCN2CC(F)C2)CCN1c1cccc(-c2cnc3[nH]cc(C4CC4)c3c2Cl)c1 [Example 58, 1-(3-(4-chloro-3-cyclopropyl-1H-pyrrolo[2,3-b]pyridin-5-yl)phenyl)-4-((3-(3-fluoroazetidin-1-yl)propyl)sulfonyl)piperazin-2-one] | 300 to 3000 | ≤ 10
CCc1c[nH]c2ncc(-c3cccc(N4CCN(C(=O)CO[C@@H]5O[C@H](CO)[C@@H](O)[C@H](O)[C@H]5O)CC4=O)c3)c(Cl)c12 [Example 49, 1-(3-(4-chloro-3-ethyl-1H-pyrrolo[2,3-b]pyridin-5-yl)phenyl)-4-(2-(((2R,3R,4S,5S,6R)-3,4,5-trihydroxy-6-(hydroxymethyl)tetrahydro-2H-pyran-2-yl)oxy)acetyl)piperazin-2-one] | > 10000 | ≤ 10
O=C1CNCCN1c1cccc(-c2cnc3[nH]cc(C#CC4CC4)c3c2Cl)c1 [Example 5, 1-(3-(4-chloro-3-(cyclopropylethynyl)-1H-pyrrolo[2,3-b]pyridin-5-yl)phenyl) piperazin-2-one] | > 10000 | ≤ 10
COCCN1CCN(c2cccc(-c3cnc4[nH]cc(C5CC5)c4c3Cl)c2)C(=O)C1 [Example 39, 1-(3-(4-chloro-3-cyclopropyl-1H-pyrrolo[2,3-b]pyridin-5-yl)phenyl)-4-(2-methoxyethyl)piperazin-2-one] | 300 to 3000 | ≤ 10
Cn1cnc(C#Cc2c[nH]c3ncc(-c4cccc(N5CCNCC5=O)c4)c(Cl)c23)n1 [Example 14, 1-(3-(4-chloro-3-((1-methyl-1H-1,2,4-triazol-3-yl)ethynyl)-1H-pyrrolo[2,3-b]pyridin-5-yl)phenyl)piperazin-2-one] | > 10000 | 10 to 100
CCc1c[nH]c2ncc(-c3cc(N4CCNCC4=O)ccc3F)c(Cl)c12 [Example 17, 1-(3-(4-chloro-3-ethyl-1H-pyrrolo[2,3-b]pyridin-5-yl)-4-fluorophenyl)piperazin-2-one] | 300 to 3000 | 10 to 100
O=C1CNCCN1c1cccc(-c2cnc3[nH]cc(C4CC4)c3c2Cl)n1 [Example 15, 1-(6-(4-chloro-3-cyclopropyl-1H-pyrrolo[2,3-b]pyridin-5-yl)pyridin-2-yl)piperazin-2-one] | ≤ 300 | ≤ 10
O=C1CNCCN1c1nc(-c2cnc3[nH]cc(C4CC4)c3c2Cl)cs1 [Example 11, 1-(4-(4-chloro-3-cyclopropyl-1H-pyrrolo[2,3-b]pyridin-5-yl)thiazol-2-yl)piperazin-2-one] | 3000 to 10000 | 10 to 100
